Assays:
[1] = test system: C. elegans wild-type N2 strain; assay: Worm culture and growth assay in axenic CeHR/mCeHR liquid medium; assay type: in vivo; parameters: key to Growth 1.6 μM hemin / Growth 0.5 μM GaPP: + = wild type equivalent In growth; ND: No growth
Procedure: (D) Biphasic response of C. elegans cultured in the presence of increasing amounts of hemin chloride (μM). Equal numbers of synchronized L1 larvae were grown in 24-well plates in mCeHR medium for 9 days and quantified (worms/μl) by microscopy. Each data point represents the mean±SD from three separate experiments performed in triplicate.
(A) Aerobic growth of C. elegans in mCeFIR medium with 20 μM hemin supplemented with either gallium protoporphyrin IX (GaPP) or gallium salts. Synchronized L1 larvae were grown for 9 days in 24-well plates and quantified (worms/μl) by microscopy. Each data point represents the mean from a single experiment, and each experiment was performed in triplicate. Inset depicts the GaPP analysis at lower concentrations for clarity.
(B) Effect of heme on the cytotoxicity of GaPP. Synchronized L1 larvae were inoculated in 24-well plates containing mCeHR medium with either 0, 2, 4, or 6 μM GaPP and increasing hemin (μM). The number of worms per μl was measured on day 9 and the data are presented as mean±SD.
FIG. 9 depicts worm utilization of heme-iron under iron deprivation. Equal numbers of synchronized L1 larvae were grown in the presence of 4, 20, and 100 μM hemin, either in basal mCeHR medium (set 1), or basal medium lacking exogenous iron (set 2), or as set 2 with 1 μM of the iron chelator ferrozine (set 3), or as set 3 with 486 μM ferrous ammonium sulfate (set 4). These values of ferrozine and iron were empirically determined by performing dose-response experiments and analyzing worm growth. The number of worms per μl was measured on day 9 and the data presented as mean±SD performed in triplicate. P<0.001 between sets 1 and 3.
To qualitatively and quantitatively determine the heme requirement of C. elegans, we assessed growth at various heme concentrations. Equal numbers of L1 larvae were inoculated in CeHR medium with either no cytochrome c and hemin, or with cytochrome c and increasing amounts of hemin (FIG. 4A). The effect of hemin became apparent within 48 hours and by 9 days, the heme-deplete worms were severely growth retarded at the L1/L2 stages. […] However, this stimulatory effect of heme was toxic to worms grown at heme concentrations >750 μM. To quantitatively assess the effect of heme on worms, we counted the number of live worms grown under different concentration of heme using DIC microscopy. […] On the basis of this association between heme and the growth and reproduction of C. elegans, we conclude that the biphasic nature of heme is likely due to the need for heme under heme-deprived conditions to perform essential metabolic functions, and the lethality of heme at high concentrations can be attributed to its cytotoxic activity.
(§1) Worm Culture and Growth Assays. Free-living worms were cultured in CeHR axenic liquid medium (Dr. Eric Clegg, Personal Communication). […] CeHR medium was modified (henceforth called mCeHR) to eliminate all sources of exogenously added heme; basal growth medium comprised 20 μM hemin chloride (Frontier Scientific, Logan, Utah) and 150 μM of ferrous ammonium sulfate (Sigma Chemicals). Worm strains were grown in mCeHR medium under aerobic conditions in tissue culture flasks at 20° C. ˜3.7×10^6 worms were routinely obtained after 3.5 to 4 days in a T75 flask with 30 ml basal medium from an initial inoculum of −1.5×10^5 worms. For initial culturing of worms in axenic media, three generations of worms were sequentially bleached (1.1% bleach/0.55 M NaOH) to eliminate any contaminating bacterial carryover from agar plates. In all dose-response experiments, worms were growth synchronized by treating the gravid hermaphrodite worms with bleach to dissolve adult worms. The eggs, resistant to bleach, were liberated from the carcasses and extensively washed with M9 buffer followed by overnight hatching in M9 buffer to synchronize growth. By harvesting at appropriate time intervals, synchronous larval stages and adult staged worms were collected for experimental manipulations. […]

[2] = test system: C. elegans mutant IH1068 n; assay: Growth of heme resistant mutant in CeHR medium; assay type: in vivo, Caenorhabditis elegans; parameters: key to Growth 1.6 μM hemin / Growth 0.5 μM GaPP: + = wild type equivalent In growth; ND: No growth
Procedure: (§2) To further increase the stringency of our genetic screen we split the contents from each 800 μM hemin selection flasks into two flasks containing either 800 μM or 1000 μM hemin. This allowed us to use another tier of positive selection to identify mutants with greater resistance to heme toxicity. Mutants from each flask were isolated and treated as a separate entity by giving an identification number based on the Genetic Nomenclature Guidelines used for C. elegans (http://biosci.umn.edu/CGC/Nomenclature/nomenguid.htm). To eliminate EMS-induced spurious mutations that could result in false positive, the mutants were outcrossed to wild-type N2 males. After five outcrosses, which replaces ˜97% of the mutant genome, mutants that bred true were selected for further analysis. Using this procedure, we isolated 13 individual mutants that were resistant to heme toxicity. These mutants were further characterized by analyzing Mendelian segregation ratios, X-linkage, phenotype penetrance, generation times, brood size, and their ability to grow under low hemin. […] This observation was surprising because we anticipated that high heme-resistant mutants will grow poorly under low heme. Based on the mutant's growth profile at low and high heme levels, we broadly categorized them into three phenotypic classes: class A, class B and class C (FIG. 13). These “phenoclusters” have the following growth phenotype: (a) three mutants IH728, IH938, IH731 show with robust growth under low and high (≧800 μM heme (FIG. 13B), (b) one mutant IH828 show exceptional growth under low heme, moderate growth at ≦800 μM heme, and no growth at 1000 μM hemin (FIG. 13C), and (c) six mutants IH921, IH11058, IH1068n, IH1068d, IH1048, and IH718 that show moderate growth under high heme (≦800 μM), but normal growth under low heme (FIG. 13D). By classifying these mutants into phenoclusters, we can focus our efforts on the phenotypic datasets to map the molecular networks and pathways involved in heme dependent processes. For instance, mutants in a cluster may have mutations within the same gene or in multiple genes but within the same pathway.
as §1, with “manipulations. Identical numbers of synchronized L1 larvae were inoculated into media with different heme concentrations in 12- or 24-well culture plates. Worm growth was monitored each day and an aliquot was obtained for counting by microscopy usually at days 3, 6, and 9. The worms in each well were counted twice and each growth condition was analyzed in triplicate. P values for statistical significance were calculated utilizing a one-way ANOVA with Student-Newman-Keuls multiple comparison test using GraphPad Instat version 3.01.” for “manipulations.”

[3] = test system: C. elegans mutant IH1048; assay: Growth of heme resistant mutant in CeHR medium; assay type: in vivo, Caenorhabditis elegans; parameters: key to Growth 1.6 μM hemin / Growth 0.5 μM GaPP: + = wild type equivalent In growth; ND: No growth
Procedure: as §2
as §1, with “manipulations. Identical numbers of synchronized L1 larvae were inoculated into media with different heme concentrations in 12- or 24-well culture plates. Worm growth was monitored each day and an aliquot was obtained for counting by microscopy usually at days 3, 6, and 9. The worms in each well were counted twice and each growth condition was analyzed in triplicate. P values for statistical significance were calculated utilizing a one-way ANOVA with Student-Newman-Keuls multiple comparison test using GraphPad Instat version 3.01.” for “manipulations.”

[4] = test system: C. elegans mutant IH1068 d; assay: Growth of heme resistant mutant in CeHR medium; assay type: in vivo, Caenorhabditis elegans; parameters: key to Growth 1.6 μM hemin / Growth 0.5 μM GaPP: + = wild type equivalent In growth; ND: No growth
Procedure: as §2
as §1, with “manipulations. Identical numbers of synchronized L1 larvae were inoculated into media with different heme concentrations in 12- or 24-well culture plates. Worm growth was monitored each day and an aliquot was obtained for counting by microscopy usually at days 3, 6, and 9. The worms in each well were counted twice and each growth condition was analyzed in triplicate. P values for statistical significance were calculated utilizing a one-way ANOVA with Student-Newman-Keuls multiple comparison test using GraphPad Instat version 3.01.” for “manipulations.”

[5] = test system: C. elegans mutant IH828; assay: Growth of heme resistant mutant in CeHR medium; assay type: in vivo, Caenorhabditis elegans; conditions: in vivo
Procedure: as §2
as §1, with “manipulations. Identical numbers of synchronized L1 larvae were inoculated into media with different heme concentrations in 12- or 24-well culture plates. Worm growth was monitored each day and an aliquot was obtained for counting by microscopy usually at days 3, 6, and 9. The worms in each well were counted twice and each growth condition was analyzed in triplicate. P values for statistical significance were calculated utilizing a one-way ANOVA with Student-Newman-Keuls multiple comparison test using GraphPad Instat version 3.01.” for “manipulations.”

[6] = test system: C. elegans mutant IH718; assay: Growth of heme resistant mutant in CeHR medium; assay type: in vivo, Caenorhabditis elegans; parameters: key: + = wild type equivalent In growth; ND: No growth
Procedure: To further increase the stringency of our genetic screen we split the contents from each 800 μM hemin selection flasks into two flasks containing either 800 μM or 1000 μM hemin. This allowed us to use another tier of positive selection to identify mutants with greater resistance to heme toxicity. Mutants from each flask were isolated and treated as a separate entity by giving an identification number based on the Genetic Nomenclature Guidelines used for C. elegans (http://biosci.umn.edu/CGC/Nomenclature/nomenguid.htm). To eliminate EMS-induced spurious mutations that could result in false positive, the mutants were outcrossed to wild-type N2 males. After five outcrosses, which replaces ˜97% of the mutant genome, mutants that bred true were selected for further analysis. Using this procedure, we isolated 13 individual mutants that were resistant to heme toxicity. […]
Worm Culture and Growth Assays. […] Worm growth was monitored each day and an aliquot was obtained for counting by microscopy usually at days 3, 6, and 9. The worms in each well were counted twice and each growth condition was analyzed in triplicate. P values for statistical significance were calculated utilizing a one-way ANOVA with Student-Newman-Keuls multiple comparison test using GraphPad Instat version 3.01. […]

C=CC1=C(C)C2=[N+]3C1=Cc1c(C)c(C=C)c4[n]1[Ga-]31[n]3c(c(C)c(CCC(=O)O)c3=CC3=[N+]1C(=C4)C(C)=C3CCC(=O)O)=C2 (centres unmarked) [GaPP, gallium protoporphyrin IX]
toxic effect of GaPP in the presence of increasing levels of hemin ([1]; 0, 2, 4 or 6 μM GaPP, day 9): attenuated | toxicity rank among six non-iron metalloporphyrins tested ([1]; 4 μM hemin): most toxic heme analog | Growth 0.5 μM GaPP ([1]; Control Wild-type (N2)): + | sensitivity compared to hemin ([1]; F1 progeny): 3,200 fold | GaPP concentration at which worms were growth arrested ([1]; F1 progeny of surviving P0 worms grown at lower GaPP): 0.25 µM | toxicity relative to hemin ([1]; P0 and F1 animals): 800-3000 times | sensitivity compared to hemin ([1]; P0 worms): 800 fold | GaPP concentration at which worms were growth retarded ([1]; P0 worms, medium with hemin): 1 µM | sensitivity of worms to GaPPIX compared to heme ([1]; in vivo): 30 times | Growth 0.5 μM GaPP [2]: + | Growth 0.5 μM GaPP [3]: + | Growth 0.5 μM GaPP [4]: + | resistance of IH828 to GaPP toxicity [5]: extremely resistant | Growth 0.5 μM GaPP [6]: +

Reference: patent US20060206946A1, “Method of disrupting heme transport in nematodes and of modelling and evaluating eukaryotic heme transport” (priority 2005, published 2006)
